Holding throughout (format): cell-based
Holding throughout (conditions): fluorescent calcium assay

One test has as its target TRPML1 (Homo sapiens, UniProt Q9GZU1). The experiment in a line: Fluorescent TRPML1 assay (Fluo4-AM calcium fluorescence in doxycycline-induced HEK-293 Trex cells). In outline: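 hTRPML1 (mutated for cell-surface expression) in HEK-293 Trex, dox 0.5 ug/mL o/n; Fluo4-AM 1 uM ~60 min, then ~60 min de-esterification, dark; modified Ringer's + 10 mM Ca. Cmpds 20 uM–6 nM final, half-log, n=3. Ex480/Em540; % activity vs ctrls; EC50 by nonlinear regression.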

The next test has as its target T1, TRPML2 (Homo sapiens, UniProt Q8IZK6).
T1 construct: expressed in transfected cells
T1 sequence (Q8IZK6 1-566): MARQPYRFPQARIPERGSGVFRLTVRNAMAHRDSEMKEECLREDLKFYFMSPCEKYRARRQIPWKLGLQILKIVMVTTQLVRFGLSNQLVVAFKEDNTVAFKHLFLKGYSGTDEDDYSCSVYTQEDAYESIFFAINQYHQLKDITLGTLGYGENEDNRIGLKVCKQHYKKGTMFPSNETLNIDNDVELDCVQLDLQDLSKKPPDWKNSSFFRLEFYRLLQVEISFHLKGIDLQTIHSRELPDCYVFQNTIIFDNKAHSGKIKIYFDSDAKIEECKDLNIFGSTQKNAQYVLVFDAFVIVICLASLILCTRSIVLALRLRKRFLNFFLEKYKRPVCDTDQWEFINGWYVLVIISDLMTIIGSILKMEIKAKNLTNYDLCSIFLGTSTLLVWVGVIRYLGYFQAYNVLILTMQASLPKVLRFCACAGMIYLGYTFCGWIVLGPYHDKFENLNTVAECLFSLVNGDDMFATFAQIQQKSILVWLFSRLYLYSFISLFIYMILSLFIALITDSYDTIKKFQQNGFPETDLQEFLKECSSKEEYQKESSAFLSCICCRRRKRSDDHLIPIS
The experiment in a line: Fluorescent TRPML2 assay (performed as for TRPML1, substituting the TRPML2 subtype). The method, then:
HEK-293 Trex cells were stably transfected with a construct consisting of the human coding sequence for TRPML1 cloned into the […] plasmid pCDNA5 T/O. Mutations were introduced into the TRPML1 sequence to facilitate expression on the cell surface (Silvia Vergarajauregui, Rosa Puertollano, Traffic. 2006 March; 7(3): 337-353). Briefly, the cells are cultured in 150 mm round tissue culture dishes containing 20 mL of media. The day before the assay the cells are rinsed with DPBS-Ca—Mg and then treated briefly with Trypsin-EDTA. The Trypsin-EDTA is diluted with growth media, and cells are counted. 38×10^6 cells are re-plated into 150 mm round tissue culture dishes in media containing 0.5 ug/mL doxycycline to induce expression of hTRPML1.
The day of the experiment cells are lifted from the plates as above and collected by centrifugation. The cells are then suspended in dye loading buffer consisting of Ringer's solution supplemented with 0.1% Pluronic Acid and 1 micromolar Fluo4-AM dye. Cells are loaded for ˜60 minutes in the dark with occasional mixing. The cells are collected by centrifugation, the loading media aspirated, and the cells resuspended in 25 mL Ringer's solution and incubated ˜60 minutes in the dark. The cells are again collected by centrifugation, rinsed in Ringer's Solution and resuspended to […] in modified Ringer's solution containing 10 mM calcium.
Compounds are dissolved to a concentration of 10 millimolar with DMSO. Compound plates are created by dispensing compounds into 384 well black wall clear bottom plates (Greiner 781091). Positive and negative controls are included on each plate. Typically, different amounts of each compound are tested ranging from 100 nanoMoles (20 micromolar final concentration) decreasing in half-log steps to 31 picoMoles (6 nanomolar final concentration). Each concentration is typically tested in triplicate.
50 microliters of dye-loaded cells are dispensed into each well of the compound assay plate created above. The fluorescence in each well is then determined with an excitation wavelength of 480 nm and an emission wavelength of 540 nm using either a Molecular Devices SpectraMax multimode plate reader or a Hamamatsu FDSS/uCell plate imager.
The resulting fluorescence for each well is exported as an ascii file and loaded into our LIMS for analysis. The percent activity of each compound at each concentration is determined by comparison to the positive and negative control wells included in each plate.
TRPML2 and TRPML3 Assays Assays for TRPML2 and TRPML3 were performed as above for TRPML1, by substituting the appropriate TRPML2 or TRPML3 subtype for the TRPML1.
EC50 values were calculated using a non-linear regression of Prism. In the table, “A” indicates an EC50 of less than 100 nM, “B” indicates an EC50 range from 100 nM to 500 nM; “C” indicates an EC50 range from 500 nM to 2 μM; and “D” indicates an EC50 greater than 2 μM.

For another test, the target named is T2, TRPML3 (Homo sapiens, UniProt Q8TDD5).
T2 construct: expressed in transfected cells
T2 sequence (Q8TDD5 1-553): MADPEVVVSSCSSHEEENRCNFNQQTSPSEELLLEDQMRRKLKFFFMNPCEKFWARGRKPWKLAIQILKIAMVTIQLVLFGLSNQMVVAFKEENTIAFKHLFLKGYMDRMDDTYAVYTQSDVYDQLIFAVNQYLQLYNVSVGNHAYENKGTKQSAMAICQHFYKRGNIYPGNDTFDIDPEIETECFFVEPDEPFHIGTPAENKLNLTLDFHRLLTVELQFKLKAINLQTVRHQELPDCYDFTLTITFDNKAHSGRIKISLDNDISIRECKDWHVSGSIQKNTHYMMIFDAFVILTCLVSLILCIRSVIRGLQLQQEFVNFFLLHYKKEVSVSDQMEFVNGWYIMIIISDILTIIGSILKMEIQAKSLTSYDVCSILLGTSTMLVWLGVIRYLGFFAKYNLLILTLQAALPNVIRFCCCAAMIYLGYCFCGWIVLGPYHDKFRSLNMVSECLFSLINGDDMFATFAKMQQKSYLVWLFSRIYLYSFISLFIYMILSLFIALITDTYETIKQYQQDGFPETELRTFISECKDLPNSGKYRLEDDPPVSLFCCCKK
In words: Fluorescent TRPML3 assay (performed as for TRPML1, substituting the TRPML3 subtype). In outline: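 Compound series (final 6 nM-20 μM, half-log, triplicate) were added to Fluo4-AM-loaded HEK-293 Trex cells in 10 mM calcium Ringer's, expressing the human TRPML subtype after doxycycline 0.5 ug/mL induction. Percent activity versus positive/negative controls from 480/540 nm fluorescence; EC50 by non-linear regression.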

TRPML1, sequence (Q9GZU1 whole entry L15A/L16A/L577A/L578A, form open): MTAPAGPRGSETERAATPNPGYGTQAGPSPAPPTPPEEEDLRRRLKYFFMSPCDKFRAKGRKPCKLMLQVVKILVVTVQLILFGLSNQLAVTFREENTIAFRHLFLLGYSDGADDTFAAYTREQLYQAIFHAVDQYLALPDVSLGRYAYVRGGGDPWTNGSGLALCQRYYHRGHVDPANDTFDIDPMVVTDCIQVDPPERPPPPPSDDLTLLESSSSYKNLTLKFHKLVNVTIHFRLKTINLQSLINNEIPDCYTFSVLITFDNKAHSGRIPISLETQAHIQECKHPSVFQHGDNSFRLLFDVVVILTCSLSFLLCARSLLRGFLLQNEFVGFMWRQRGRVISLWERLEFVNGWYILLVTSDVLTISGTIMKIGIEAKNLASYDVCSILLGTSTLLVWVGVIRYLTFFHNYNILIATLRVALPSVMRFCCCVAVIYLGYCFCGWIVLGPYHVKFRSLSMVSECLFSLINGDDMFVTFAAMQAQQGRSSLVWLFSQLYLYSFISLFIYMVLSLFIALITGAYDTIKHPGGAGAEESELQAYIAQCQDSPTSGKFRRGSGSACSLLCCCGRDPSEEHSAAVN

In the case of `CC(C)(C)OC(=O)N1CCN(c2ncnc3c2c(-c2cccnc2)cn3-c2cccc(Cl)c2)CC1` [Compound 102, tert-butyl 4-(7-(3-chlorophenyl)-5-(pyridin-3-yl)-7H-pyrrolo [2,3-d]pyrimidin-4-yl)piperazine-1-carboxylate], the half-maximal effective concentration (EC50) (commonly the midpoint of the concentration-response curve) is below 100 nM on TRPML1, 100 to 500 nM at TRPML2 and below 100 nM at TRPML3.

`COc1cncc(-n2cc(-c3ccccc3F)c3c(N4CCN(C(=O)OC(C)(C)C)CC4)ncnc32)c1` [Compound 103, tert-butyl 4-(5-(2-fluorophenyl)-7-(5-methoxypyridin-3-yl)-7H-pyrrolo[2,3-d]pyrimidin-4-yl)piperazine-1-carboxylate]: the EC50 on TRPML1 was 100 to 500 nM; on TRPML2, 500 to 2000 nM; on TRPML3, 100 to 500 nM.

Take `COc1cncc(-n2cc(C3CC3)c3c(N4CCN(C(=O)OC(C)(C)C)CC4)ncnc32)c1` [Compound 104, tert-butyl 4-(5-cyclopropyl-7-(5-methoxypyridin-3-yl)-7H-pyrrolo[2,3-d]pyrimidin-4-yl)piperazine-1-carboxylate]: the concentration for a half-maximal effect (EC50) at TRPML1 was 500 to 2000 nM; on TRPML2 it was above 2000 nM; on TRPML3 it was 100 to 500 nM.

Take `COc1cncc(-n2cc(-c3ccccc3F)c3c(N4CCN(C(=O)OC(C)(C)C)C[C@@H]4C)ncnc32)c1` [Compound 105, tert-butyl (S)-4-(5-(2-fluorophenyl)-7-(5-methoxypyridin-3-yl)-7H-pyrrolo[2,3-d]pyrimidin-4-yl)-3-methylpiperazine-1-carboxylate]: the EC50 on TRPML1 is 500 to 2000 nM; at TRPML2, above 2000 nM; on TRPML3 it was 500 to 2000 nM.

Regarding `COc1cncc(-n2cc(C3CC3)c3c(N4CCN(C(=O)OC(C)(C)C)C[C@@H]4C)ncnc32)c1` [Compound 106, tert-butyl (S)-4-(5-cyclopropyl-7-(5-methoxypyridin-3-yl)-7H-pyrrolo[2,3-d]pyrimidin-4-yl)-3-methylpiperazine-1-carboxylate], the EC50 lay within 100 to 500 nM on TRPML1, 500 to 2000 nM on TRPML2 and 100 to 500 nM at TRPML3.

With `CC(C)(C)OC(=O)N1CCN(c2ncnc3c2c(C2CC2)cn3-c2ccc(Cl)cc2)CC1` [Compound 107, tert-butyl 4-(7-(4-chlorophenyl)-5-cyclopropyl-7H-pyrrolo[2,3-d]pyrimidin-4-yl) piperazine-1-carboxylate], the EC50 at TRPML1 was below 100 nM; on TRPML2, 100 to 500 nM; at TRPML3 it was below 100 nM.

In the case of `C[C@@H]1CN(c2ncnc3c2c(C2CC2)cn3-c2cc(F)cc(F)c2)CCN1C(=O)OC(C)(C)C` [Compound 108, tert-butyl (R)-4-(5-cyclopropyl-7-(3,5-difluorophenyl)-7H-pyrrolo[2,3-d]pyrimidin-4-yl)-2-methylpiperazine-1-carboxylate], the EC50 at TRPML1 was below 100 nM; on TRPML2, 100 to 500 nM; at TRPML3, below 100 nM.

On to `C[C@@H]1CN(c2ncnc3c2c(C2CC2)cn3-c2ccc(F)c(F)c2)CCN1C(=O)OC(C)(C)C` [Compound 109, tert-butyl (R)-4-(5-cyclopropyl-7-(3,4-difluorophenyl)-7H-pyrrolo[2,3-d]pyrimidin-4-yl)-2-methylpiperazine-1-carboxylate], for which the concentration for a half-maximal effect (EC50) at TRPML1, at TRPML2 and at TRPML3 was below 100 nM in each case.

Regarding `C[C@@H]1CN(c2ncnc3c2c(C2CC2)cn3-c2ccc(Cl)c(F)c2)CCN1C(=O)OC(C)(C)C` [Compound 110, tert-butyl (R)-4-(7-(4-chloro-3-fluorophenyl)-5-cyclopropyl-7H-pyrrolo[2,3-d]pyrimidin-4-yl)-2-methylpiperazine-1-carboxylate], the EC50 at TRPML1, on TRPML2 and on TRPML3 was below 100 nM in each case.

As for `C[C@@H]1CN(c2ncnc3c2c(C2CC2)cn3-c2cc(Cl)cc(Cl)c2)CCN1C(=O)OC(C)(C)C` [Compound 111, tert-butyl (R)-4-(5-cyclopropyl-7-(3,5-dichlorophenyl)-7H-pyrrolo[2,3-d]pyrimidin-4-yl)-2-methylpiperazine-1-carboxylate], the EC50 at TRPML1 is below 100 nM; on TRPML2, 100 to 500 nM; at TRPML3, below 100 nM.

For the molecule `CCOC(=O)N1CCN(c2ncnc3c2c(C2CC2)cn3-c2ccc(Cl)cc2)[C@@H](C)C1` [Compound 112, ethyl (S)-4-(7-(4-chlorophenyl)-5-cyclopropyl-7H-pyrrolo[2,3-d]pyrimidin-4-yl)-3-methylpiperazine-1-carboxylate], the figures for the concentration giving a half-maximal response (EC50) at TRPML1, at TRPML2 and on TRPML3 were 100 to 500 nM, 100 to 500 nM and 500 to 2000 nM, respectively.

With `CC(C)(C)OC(=O)N1CCN(c2ncnc3c2c(C2CC2)cn3-c2ccc(F)c(F)c2)CC1` [Compound 113, tert-butyl 4-(5-cyclopropyl-7-(3,4-difluorophenyl)-7H-pyrrolo[2,3-d]pyrimidin-4-yl)piperazine-1-carboxylate], the EC50 on TRPML1 is below 100 nM; on TRPML2, 500 to 2000 nM; on TRPML3, 100 to 500 nM.

As for `C[C@H]1CN(C(=O)OC(C)(C)C)CCN1c1ncnc2c1c(C1CC1)cn2-c1ccc(Cl)cc1` [Compound 114, tert-butyl (S)-4-(7-(4-chlorophenyl)-5-cyclopropyl-7H-pyrrolo[2,3-d]pyrimidin-4-yl)-3-methylpiperazine-1-carboxylate], the half-maximal effective concentration (EC50) at TRPML1, on TRPML2 and on TRPML3 was below 100 nM throughout.

For the molecule `C[C@H]1CN(C(=O)OC(C)(C)C)CCN1c1ncnc2c1c(-c1ccncn1)cn2-c1cccc(Cl)c1` [Compound 115, tert-butyl (S)-4-(7-(3-chlorophenyl)-5-(pyrimidin-4-yl)-7H-pyrrolo[2,3-d]pyrimidin-4-yl)-3-methylpiperazine-1-carboxylate], the values for the half-maximal effective concentration (EC50) at TRPML1, on TRPML2 and on TRPML3 were 100 to 500 nM, 500 to 2000 nM and 100 to 500 nM, respectively.

The record behind these values is patent US20250136606A1, “MODULATORS OF TRPML, THEIR COMPOSITIONS AND METHODS OF USE” (Caraway Therapeutics, Inc., priority 2021, published 2025).
